According to patent publication US11560582B2, “Fusion moieties and microbial hosts for protein production” (priority 2018, dated 2023):

B1: AsPoIII: DNA polymerase II from Aliivibrio salmonicida (SEQ ID NO: 38), His-tagged, expressed in A. wodanis (protein, listed as Aliivibrio salmonicida)
chain: LNSPHCGFLLTRQNKDIRDHSLVDLWVKCDDHIAHLLIENELAVIFFLKERQAEYESILTNAHIHYSIKSTSLHTFQHQPVFGLYFSSTQQKRVATALFEDHQLPTFEGDIRLADRYLMERFICGGMAFVGTPRQRKGYVEYRDVKIKSAEMTPEFSVVSLDVECSEKGILYSVALHCERDTRIIMVGPEETSDLPIEWVENEKALLLALESWFQTFDPDIIIGWNVINFDFNLLIKRAKWHNLAFRLGRGNSSLYFRESNKNRQQGFLSFPGRVVLDGIDALKTATYHFSSWSLESVSQELLNEGKSIHDPSDRMGEINRMYREDKCALAKYNLQDCVLVTRIFELTHLLEFVIERTKLTGIELDRVGGSVAAFTNLYLPRLHRAGYIAPNLESENWIASPGGYVMSSKPGLYESVLVLDFKSLYPSIIKTFRIDPLGLVEGLKLESGIDDGQAIEGFRGGRFHRTKHFLPNLIETLWSARDVAKKNNEKAFSQAIKIIMNSFYGVLGSSGCRFFDHRLASSITMRGHEIMKTTRELIESQGYEVIYGDTDSTFVTLGESMPSDEADKIGKQLVDHINQWWTAHLESEYAIDSALEIEYETHYRIFLMPTIRGSEMGSKKRYAGLIRKGDKEEIIFKGLETVRTDWTPLSQEFQKVLFDKVFHQQAVEEYVREYVDKTKSGEFDNKLIYRKRLRRQLDEYQKNVPPHVKAARIADTQNQKLGKPLMYQQGGWIEYIITTAGPEPIEYRQNPIDYDHYVEKQLKPIAEGILPFVNLSFTELSASQLGLF
modifications: 6xHis tag
B2: AsExoI: Exonuclease I from Aliivibrio salmonicida (SEQ ID NO: 37), His-tagged, expressed in A. wodanis (protein, listed as Aliivibrio salmonicida)
chain: MPQDNAPSFFFFDYETWGTSPSLDRPCQFAGVRTDEDFNIIGEPLVIYCRPPIDYLPSPEACLITGITPQMAVSKGLSEPEFIAQIHNELSKPNTCSLGYNNIRFDDEVSRYTLYRNFFEPYGWSWQNGNSRWDLLDVMRAVYALRPEGIEWPKDEEGKPSFRLEKLSQANGIEHENAHDAMADVIATIELAKVVKKAQPKMFNYLLSMRHKKKAATLIDIIEMTPLMHVSGMFGVDRGNISWIVPVAWHPTNNNAVITIDLALDPAVFLELDAEQLHQRMYTKRSELGPDELPVPVKLVHLNKCPILAPAKTLTAENAIALNVDREACLRNLKVIRENPEIRQKLIDLYNIEPGYEKSSNVDTLLYDGFFSHADKTAIDMIRQSTPEQLIDFEPNVSDPRIKPLLFRYRARNFPHTLNESEQLRWQAHLQDYFETHMSDYETRFESLYLESEGNEKKTAILRAVYNYVQQLVS
modifications: 6xHis tag

What was measured:
[1] = test system: A. wodanis strains; conditions: have been reported; cited from earlier work
[2] = test system: molecular beacon probe; experiment: DNA polymerase molecular beacon activity assay; assay type: biochemical; conditions: affinity purified enzyme expressed in A. wodanis 03/09/160; increasing enzyme
From the text: Activity assay for AsPoIII is based on a molecular beacon probe (5″-GGCCCGT^Dabcyl[…]^FAMACGGGCCGTCAAGTT CATG […]-3′ (SEQ ID NO:46)) (modified from Summerer, 2008). The molecular beacon probe consists of a 23mer loop that is connected by a GC-rich 8mer stem region (the 8-mer stem region consists of two 8 nucleotide sequences-sequences are indicated in italics) and a 43mer extension. The fluorophores Dabcyl and FAM are attached to the indicated “T” nucleotides. Due to the loop formation the fluorophores Dabcyl and FAM are in close proximity and thus quenched. Upon extension by the DNA polymerase I of the primer (5″-GTGGTGCGAAATTTCTGAC-3′ (SEQ ID NO:47)) that is annealed to the molecular beacon template the stem is opened and the increase in distance of the two fluorophores is measured by the restoration of FAM fluorescence (excitation 485 nm, emission 518 nm). Assay was monitored in 50 μL reactions containing 0.2 μM substrate (molecular beacon) mixed with 0.2 mM dNTP in 1× reaction buffer (250 mM Tris-HCl, pH 8.5, 250 mM, KCl, 25 mM MgCl2) and 1×DB (1 mg/ml BSA, 5 mM DTT, 10% glycerol). The mixture was first incubated at 25° C. for 5 min, and the reaction was started by adding the purified enzyme. Increase in fluorescence was measured (excitation 485 nm, emission 518 nm) for 15 min with 10 sec intervals (total of 91 reads). […]

[3] = test system: ssDNA "molecular beacon" substrate; experiment: Exonuclease I molecular beacon activity assay; assay type: biochemical; conditions: affinity purified enzyme expressed in A. wodanis 03/09/160; increasing enzyme
Method: The two enzyme activity assays used in this work are both based on so-called “molecular beacons”. Each “molecular beacon” consists of a hairpin shaped DNA oligonucleotide with an internally quenched fluorophore (in this case FAM). TAMRA was used as the FAM quencher. Enzyme activity of affinity purified AsExoI and MvExoI were tested in 50 μL reactions containing the following: 0.2 μM ssDNA “molecular beacon” substrate (5′-FAM-CGCCATCGGAGGTTC-TAMRA-3′ (SEQ ID NO:45)), 50 mM Tris pH 8.5, 30 mM MgCl2, 1 mM DTT, 0.2 mg/ml BSA, 2% glycerol and 8.5 nM enzyme (Exonuclease I). The reaction was carried out in a black 96-well fluorescence assay plate (Corning®), and increase in FAM fluorescence (excitation at 485 nm, emission at 518 nm) was measured as relative fluorescence units (RFU) at appropriate time intervals for 40 min.

| Molecule | Resistance of A. wodanis strains (reported) [1] | also measured |
| --- | --- | --- |
| CC1(C)S[C@@H]2[C@H](NC(=O)[C@H](N)c3ccccc3)C(=O)N2[C@H]1C(=O)O [ampicillin] | Resistance |  |
| CO[C@@]1(NC(=O)Cc2cccs2)C(=O)N2C(C(=O)O)=C(COC(N)=O)CS[C@@H]21 [cefoxitin] | Resistance |  |
| Cc1cc(NS(=O)(=O)c2ccc(N)cc2)no1 [sulfamethoxazole] | Resistance |  |
| B1 |  | DNA polymerase activity (FAM fluorescence, RFU) [2]: dose-dependent |
| B2 |  | exonuclease activity (FAM fluorescence, RFU) [3]: dose-dependent |
